Columns and labels:
[1] = Dual label excretion studies of 188Re-MAG3 and 99mTc-MAG3 in rats (urine, feces); format: in vivo; details: simultaneously injected in rats
Description: Comparison of the Excretion of ^188 Re-MAG3 with ^99 mTc-MAG3 in rats
Dual Label Excretion Studies of ^188 Re-MAG3 and ^99m Tc-MAG3 in Rats

[2] = Biodistribution of 99mTc-MAG3 and 188Re-MAG3 in a dual label study, tail vein injection; format: in vivo, rats; details: ± standard deviation
Description: Biodistribution Data for ^99m Tc-MAG3 and ^188 Re-MAG3 in a dual label study

Structure (SMILES): O=C(O)C[N]1C(=O)C[N]2C(=O)C[N]3C(=O)C[S][99Tc-]132=[O] [^99m Tc-MAG3, reference compound]
- distribution and elimination, 99mTc-MAG3 versus 188Re-MAG3 [1]: identical
- Biodistribution Data for ^99m Tc-MAG3, blood ([2]; 2 h): 0.18 ± 0.02 % inj. dose/g tissue
- Biodistribution Data for ^99m Tc-MAG3, blood ([2]; 6 h): 0.13 ± 0.00 % inj. dose/g tissue
- Biodistribution Data for ^99m Tc-MAG3, blood ([2]; 24 h): 0.05 ± 0.00 % inj. dose/g tissue
- Biodistribution Data for ^99m Tc-MAG3, bone ([2]; 2 h): 0.05 ± 0.02 % inj. dose/g tissue
- Biodistribution Data for ^99m Tc-MAG3, bone ([2]; 6 h): 0.03 ± 0.03 % inj. dose/g tissue
- Biodistribution Data for ^99m Tc-MAG3, bone ([2]; 24 h): 0.02 ± 0.01 % inj. dose/g tissue
- Biodistribution Data for ^99m Tc-MAG3, contents of l.i. ([2]; 2 h): 0.72 ± 0.18 % inj. dose/g tissue
- Biodistribution Data for ^99m Tc-MAG3, contents of l.i. ([2]; 6 h): 1.16 ± 0.23 % inj. dose/g tissue
- Biodistribution Data for ^99m Tc-MAG3, contents of l.i. ([2]; 24 h): 0.05 ± 0.01 % inj. dose/g tissue
- Biodistribution Data for ^99m Tc-MAG3, contents of s.i. ([2]; 2 h): 1.84 ± 2.27 % inj. dose/g tissue
- Biodistribution Data for ^99m Tc-MAG3, contents of s.i. ([2]; 6 h): 0.08 ± 0.03 % inj. dose/g tissue
- Biodistribution Data for ^99m Tc-MAG3, contents of s.i. ([2]; 24 h): 0.02 ± 0.01 % inj. dose/g tissue
- Biodistribution Data for ^99m Tc-MAG3, heart ([2]; 2 h): 0.09 ± 0.02 % inj. dose/g tissue
- Biodistribution Data for ^99m Tc-MAG3, heart ([2]; 6 h): 0.08 ± 0.01 % inj. dose/g tissue
- Biodistribution Data for ^99m Tc-MAG3, heart ([2]; 24 h): 0.04 ± 0.00 % inj. dose/g tissue
- Biodistribution Data for ^99m Tc-MAG3, kidneys ([2]; 2 h): 0.61 ± 0.11 % inj. dose/g tissue
- Biodistribution Data for ^99m Tc-MAG3, kidneys ([2]; 6 h): 0.43 ± 0.09 % inj. dose/g tissue
- Biodistribution Data for ^99m Tc-MAG3, kidneys ([2]; 24 h): 0.40 ± 0.11 % inj. dose/g tissue
- Biodistribution Data for ^99m Tc-MAG3, large intestine ([2]; 2 h): 0.14 ± 0.02 % inj. dose/g tissue
- Biodistribution Data for ^99m Tc-MAG3, large intestine ([2]; 6 h): 0.18 ± 0.00 % inj. dose/g tissue
- Biodistribution Data for ^99m Tc-MAG3, large intestine ([2]; 24 h): 0.06 ± 0.00 % inj. dose/g tissue
- Biodistribution Data for ^99m Tc-MAG3, liver ([2]; 2 h): 0.15 ± 0.02 % inj. dose/g tissue
- Biodistribution Data for ^99m Tc-MAG3, liver ([2]; 6 h): 0.15 ± 0.00 % inj. dose/g tissue
- Biodistribution Data for ^99m Tc-MAG3, liver ([2]; 24 h): 0.11 ± 0.01 % inj. dose/g tissue
- Biodistribution Data for ^99m Tc-MAG3, lung ([2]; 2 h): 0.15 ± 0.04 % inj. dose/g tissue
- Biodistribution Data for ^99m Tc-MAG3, lung ([2]; 6 h): 0.07 ± 0.02 % inj. dose/g tissue
- Biodistribution Data for ^99m Tc-MAG3, lung ([2]; 24 h): 0.04 ± 0.03 % inj. dose/g tissue
- Biodistribution Data for ^99m Tc-MAG3, small intestine ([2]; 2 h): 0.12 ± 0.04 % inj. dose/g tissue
- Biodistribution Data for ^99m Tc-MAG3, small intestine ([2]; 6 h): 0.07 ± 0.01 % inj. dose/g tissue
- Biodistribution Data for ^99m Tc-MAG3, small intestine ([2]; 24 h): 0.03 ± 0.00 % inj. dose/g tissue
- Biodistribution Data for ^99m Tc-MAG3, spleen ([2]; 2 h): 0.06 ± 0.02 % inj. dose/g tissue
- Biodistribution Data for ^99m Tc-MAG3, spleen ([2]; 6 h): 0.07 ± 0.01 % inj. dose/g tissue
- Biodistribution Data for ^99m Tc-MAG3, spleen ([2]; 24 h): 0.06 ± 0.00 % inj. dose/g tissue
- Biodistribution Data for ^99m Tc-MAG3, thyroid ([2]; 2 h): 2.41 ± 0.95 % inj. dose/g tissue
- Biodistribution Data for ^99m Tc-MAG3, thyroid ([2]; 6 h): 2.43 ± 0.24 % inj. dose/g tissue
- Biodistribution Data for ^99m Tc-MAG3, thyroid ([2]; 24 h): 0.76 ± 0.59 % inj. dose/g tissue

— US5924973A, “Method of treating a disease process in a luminal structure” (The Trustees of Columbia University in the City of New York, priority 1996, dated 1999)
